Experimental data published in the NIST ThermoML archive (doi:10.1016/j.fluid.2012.05.003).
Numbers after ± are expanded uncertainties.

Conditions: Crystal; DTA

Structure (SMILES): O=C(O)CNCP(=O)(O)O [(phosphonomethyl)glycine]
- Normal melting temperature: 214.7 ± 0.5 °C
